We go through two molecules from patent US8022103B2, “Ester prodrugs of prostratin and related phorbol compounds” (Salvia Sciences, Inc., priority 2005, dated 2011).

Data set [1] deals with human monocytes/macrophages. Put plainly: MTS staining for macrophage viability (cytotoxicity). The data set is classed as cell-based. The method, then:
Anti-HIV efficacy evaluation in human monocyte/macrophages. Following 6 to 14 days in culture, the monocyte/macrophages cultures were washed 3 times to remove any non-adherent cells, and serially diluted test compounds were added followed by the addition of a pre-titered amount of HIV. Cultures were washed a final time by media removal 24 h post infection, fresh compound added and the cultures continued for an additional six days. Assays were performed using a standardized microtiter plate format developed by the Infectious Disease Research Department of Southern Research Institute. […] At assay termination, virus replication was measured by collecting cell-free supernatant samples, which were analyzed for HIV p24 antigen content using a commercially available p24 ELISA assay (Coulter). Following removal of supernatant samples, compound cytotoxicity was measured by addition of MTS to the plates for determination of cell viability. […]
MTS staining for macrophage viability to measure cytotoxicity. At assay termination, the assay plates were stained with the soluble tetrazolium-based dye MTS (CellTiter Reagent, Promega) to determine cell viability and quantify compound cytotoxicity. MTS is metabolized by the mitochondrial enzymes of metabolically active cells to yield a soluble formazan product, allowing the rapid quantitative analysis of cell viability and compound cytotoxicity. […]

In a further data set the test system is Hepatitis B Virus. Put plainly: HepG2 2.2.15 antiviral assay (HBV DNA, TaqMan PCR). The class given is cell-based, Hepatitis B (HBV). The following applies: HepG2 2.2.15 cells. The procedure:
Compounds SA-101A and SA-101B were evaluated for effect on Hepatitis B Virus replications using a cell culture based HBV replication system.
Compound preparation. The compounds were prepared in powder form (˜1 mg) and solubilized in DMSO prior to use. Compound 3TC was used as positive antiviral control.
HepG2 2.2.15 Antiviral Assay. The assay developed is similar to that described ion the literature (Korba et al., 1991, Antiviral Res. 15: 217-228; Korba et al., 1992, Antiviral Res. 19: 55-70) with the exception that viral DNA detection and quantification have been improved and simplified (Buckwold et al., 2004, Antiviral Res. 61(1): 57-62). Briefly, HepG2-2.2.15 cells are plated in 96-well microtiter plates. […] Six days following the initial administration of the test compound, the cell culture supernatant is collected, treated with pronase and DNAse and then used in a real-time quantitative TaqMan PCR assay. The PCR-amplified HBV DNA is detected in real-time by monitoring increases in fluorescence signals that result from the exonucleolytic degradation of a quenched fluorescent probe molecule that hybridizes to the amplified HBV DNA. […] Antiviral activity is calculated from the reduction in HBV DNA levels (IC50). […] The therapeutic index (TI) is calculated as TC50/IC50.
On the technique in general: Quantitative PCR measures a nucleic acid by following its amplification.

Another data set concerns HIV-1IIIB. Nature of the data set: HIV-1 antiviral cytoprotection assay in CEM-SS cells. The class given is cell-based. The method, then:
Antiviral efficacy of SA-101A and SA-101B compounds were evaluated in an HIV 1 antiviral cytoprotection assay using CEM-SS cells and the laboratory adapted HIV 1IIIB virus strain.
Compound preparation. Compounds SA-101A and SA-101B were prepared in powder form and solubilized in DMSO and stored at −20° C. AZT (Sigma), solubilized in sterile H2O, was used as a positive antiviral control and was stored at 4° C. The compounds were evaluated at a high test concentration of 500 μg/mL. AZT was run in parallel at a concentration of 500 nM.
Cell Preparation. CEM-SS cells were passaged in T-75 flasks prior to use in the antiviral assay. On the day preceding the assay, the cells were split 1:2 to assure they were in an exponential growth phase at the time of infection. Total cell and viability quantification was performed using a hemacytometer and trypan blue exclusion. Cell viability was greater than 95% for the cells to be utilized in the assay. […]
Virus Preparation. […] The virus was resuspended and diluted into tissue culture medium such that the amount of virus added to each well in a volume of 50 μl was the amount determined to give approximately 90% cell killing at 6 days post-infection.
MTS Staining for Cell Viability. At assay termination, the assay plates were stained with the soluble tetrazolium-based dye MTS (Cell Titer Reagent Promega) to determine cell viability and quantify compound toxicity. […]

≈ marks a conversion by molar mass, not a printed value. Where two headings read alike, the source gives them in different places.

As to `CC(=O)O[C@@]12C[C@@H](C)[C@@]3(O)[C@@H](C=C(CO)C[C@]4(O)C(=O)C(C)=C[C@@H]34)[C@@H]1C2(C)C` [SA-101A, 12-deoxyphorbol 13-acetate], the TC50 in data set [1] is 17.3 µg/mL (≈ 44.3 µM). Besides, the “EC50 (inhibition of HBV)” value in the data set on Hepatitis B Virus is “did not achieve EC50 values”. In addition, in the data set on HIV-1IIIB (Human immunodeficiency virus 1, read-out: IC50), the IC50 came out at 0.086 µg/mL (≈ 0.22 µM).

The molecule `CC(=O)OC12CC(C)C3(O)C(C=C(COC(=O)CCC(=O)O)CC4(O)C(=O)C(C)=CC43)C1C2(C)C` (stereo not drawn) [SA-101B, Prostratin Succinate] had a TC50 in data set [1] (40% Human AB serum) of 21.0 µg/mL. In the data set with Hepatitis B Virus, the “EC50 (inhibition of HBV)” value is listed as “did not achieve EC50 values”. In addition, the IC50 entry in the data set on HIV-1IIIB is reported as “did not achieve an IC50 value”.

For orientation: IC50 means the concentration that gives 50% inhibition.
